Measured values as given in the supplement of paper PMC10331698.
± gives the standard deviation of the averaged measurements.

Experiments:
Experiment in all cases: level (log10 ratio to DMSO vehicle control); higher = higher biomarker level / cell amount than vehicle control
[1] = compound: O=S(=O)(O)CCC(F)(F)C(F)(F)C(F)(F)C(F)(F)C(F)(F)C(F)(F)C(F)(F)C(F)(F)F [8:2 Fluorotelomer sulfonic acid] (in DMSO)
Experimental: (§1)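 BioMAP Diversity Plus panel of 12 human primary cell co-culture systems (3C, 4H, LPS, SAg, BT, BF4T, BE3C, CASM3C, HDF3CGF, KF3CT, MyoF, Mphg). Compounds were added 1 h before stimulation and left for 24 h (MyoF 48 h; BT 72 h for soluble read-outs or 6 d for IgG). Biomarkers were read by ELISA, cytotoxicity by SRB, PBMC viability and proliferation by Alamar Blue. Each well value was divided by the mean of 8 DMSO control wells on the same plate and log10 transformed; duplicate blinded samples were tested at 4 concentrations.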

[2] = compound: O=C(O)CCC(F)(C(F)(F)F)C(F)(F)F [4,4-bis(Trifluoromethyl)-4-fluoropropanoic acid] (in DMSO)
Experimental: as §1

[3] = compound: CCOC(=O)CC(=O)C(F)(F)C(F)(F)F [Ethyl pentafluoropropionyl acetate] (in DMSO)
Experimental: as §1

[4] = compound: O=S(=O)(O)C(F)(F)C(F)(F)OC(F)(F)C(F)(F)F [Perfluoro(2-ethoxyethane)sulfonic acid] (in DMSO)
Experimental: as §1

[5] = compound: O=C(O)C=C(C(F)(F)F)C(F)(F)F [3,3-Bis(trifluoromethyl)-2-propenoic acid] (in DMSO)
Experimental: as §1

[6] = compound: O=C(O)C(F)(F)OC(F)(F)C(F)(F)OC(F)(F)C(F)(F)OC(F)(F)C(F)(F)C(F)(F)C(F)(F)F [Perfluoro-3,6,9-trioxatridecanoic acid] (in DMSO); conditions: 6700 nM
Experimental: as §1

[7] = compound: NS(=O)(=O)C(F)(F)C(F)(F)C(F)(F)C(F)(F)C(F)(F)C(F)(F)C(F)(F)C(F)(F)F [Perfluorooctanesulfonamide] (in DMSO)
Experimental: as §1

Test System | level (log10) ([1]; 6700 nM) | level (log10) ([1]; 20000 nM) | level (log10) ([1]; 60000 nM) | level (log10) ([2]; 6700 nM) | level (log10) ([2]; 20000 nM) | level (log10) ([2]; 60000 nM) | level (log10) ([3]; 6700 nM) | level (log10) ([3]; 20000 nM) | level (log10) ([3]; 60000 nM) | level (log10) ([4]; 6700 nM) | level (log10) ([4]; 20000 nM) | level (log10) ([4]; 60000 nM) | level (log10) ([5]; 6700 nM) | level (log10) ([5]; 20000 nM) | level (log10) ([5]; 60000 nM) | level (log10) [6] | level (log10) ([7]; 6700 nM) | level (log10) ([7]; 20000 nM)
KF3CT:TIMP-2 | -0.033 ± 0.0042 | 0.0075 ± 0.0064 | 0.0225 ± 0.0021 | -0.0315 ± 0.039 | -0.0015 ± 0.052 | -0.0125 ± 0.0035 | 0.004 ± 0.011 | -0.0105 ± 0.0078 | 0.0175 ± 0.0035 | 0.0035 ± 0.0092 | 0.01 | 0.0155 ± 0.005 | 0.006 ± 0.048 | -0.016 ± 0.021 | 0.039 ± 0.052 | -0.172 ± 0.037 | -0.0275 ± 0.012 | -0.06 ± 0.021
KF3CT:uPA | 0.007 ± 0.0042 | 0.006 ± 0.024 | 0.012 ± 0.016 | 0.001 ± 0.0071 | -0.0145 ± 0.028 | -0.004 ± 0.023 | 0.01 ± 0.018 | 0.0095 ± 0.016 | -0.006 ± 0.023 | 0.013 ± 0.011 | 0.006 ± 0.021 | 0.0055 ± 0.022 | 0.027 ± 0.02 | 0.0275 ± 0.028 | 0.0325 ± 0.0021 | 0.027 ± 0.0057 | 0.0165 ± 0.0064 | -0.093 ± 0.0014
MyoF:CD106/VCAM-1 | -0.0035 ± 0.0021 | -0.0325 ± 0.016 | -0.084 ± 0.02 | -0.0065 ± 0.0078 | -0.0095 ± 0.026 | -0.0045 ± 0.015 | -0.0125 ± 0.012 | -0.012 ± 0.023 | -0.0105 ± 0.021 | 0.006 ± 0.013 | -0.0095 ± 0.015 | 0.013 ± 0.013 | -0.0825 ± 0.00071 | -0.145 ± 0.0021 | -0.291 ± 0.04 | -0.212 ± 0.048 | -0.005 ± 0.023 | -0.293 ± 0.088
MyoF:CXCL8/IL-8 | -0.0085 ± 0.03 | -0.0885 ± 0.046 | -0.157 ± 0.016 | 0.0035 ± 0.0092 | 0.0085 ± 0.0078 | 0.009 ± 0.0099 | -0.007 ± 0.018 | -0.0025 ± 0.021 | 0.0105 ± 0.029 | 0.0095 ± 0.037 | 0.0225 ± 0.03 | 0.03 ± 0.024 | 0.0915 ± 0.00071 | 0.107 ± 0.015 | 0.154 ± 0.016 | 0.056 ± 0.0057 | -0.04 ± 0.031 | -0.013 ± 0.0085
MyoF:Collagen I | 0.004 ± 0.0042 | -0.0265 ± 0.026 | -0.024 ± 0.0071 | -0.0045 ± 0.012 | -0.0065 ± 0.0092 | 0.008 ± 0.0028 | -0.0085 ± 0.026 | -0.0155 ± 0.036 | -0.014 ± 0.041 | 0.016 ± 0.011 | -0.0025 ± 0.015 | 0.039 ± 0.014 | -0.031 ± 0.0057 | -0.046 ± 0.021 | -0.055 ± 0.04 | -0.598 ± 0.0057 | -0.018 ± 0.014 | -0.236 ± 0.0028
MyoF:Collagen III | -0.008 ± 0.017 | -0.04 ± 0.031 | -0.0355 ± 0.023 | -0.0045 ± 0.011 | -0.0205 ± 0.021 | 0.003 ± 0.02 | -0.0045 ± 0.016 | -0.0045 ± 0.011 | -0.009 ± 0.0042 | -0.0035 ± 0.0092 | -0.005 ± 0.0071 | 0.0105 ± 0.012 | -0.021 ± 0.0014 | -0.0335 ± 0.00071 | -0.064 ± 0.011 | -0.894 ± 0.12 | -0.014 ± 0.0099 | -0.242 ± 0.023
MyoF:Collagen IV | -0.0215 ± 0.019 | -0.0335 ± 0.036 | 0.005 ± 0.0099 | -0.0105 ± 0.025 | -0.0185 ± 0.023 | 0.0035 ± 0.00071 | 0.0045 ± 0.018 | 0.01 ± 0.0028 | 0.0045 ± 0.018 | 0.0015 ± 0.0021 | 0.004 ± 0.016 | 0.0315 ± 0.04 | -0.0215 ± 0.029 | -0.055 ± 0.025 | -0.0345 ± 0.028 | 0.412 ± 0.089 | 0.118 ± 0.015 | 0.28 ± 0.028
MyoF:Decorin | 0.0555 ± 0.029 | 0.024 ± 0.03 | -0.001 ± 0.0014 | -0.0215 ± 0.025 | -0.015 ± 0.044 | -0.001 ± 0.04 | -0.0135 ± 0.026 | -0.0025 ± 0.016 | 0.023 ± 0.014 | -0.0085 ± 0.0092 | 0.001 ± 0.013 | 0.0355 ± 0.005 | -0.0275 ± 0.0021 | -0.043 ± 0.024 | -0.057 ± 0.045 | 0.033 ± 0.037 | 0.0265 ± 0.053 | 0.031 ± 0.037
